± gives the expanded uncertainty stated by the source.
Assays:
[1] = mn = molality of the nth substance listed, in mol/kg; details: 85 kPa, Liquid; for viscosity: Falling or rolling sphere viscometry; for speed of sound: Frequency=3 MHz, Single path-length method; for mass density: Vibrating tube method
[2] = refractive index (Na D-line) (dimensionless); mn = molality of the nth substance listed, in mol/kg; details: 85 kPa, Liquid, Standard Abbe refractometry

C[C@H](N)C(=O)[O-].C[N+](C)(C)CCO [2-hydroxy-N,N,N-trimethylethanaminium L-alaninate] + O
Details	mass density, [1] [kg/m3]	refractive index, [2]	speed of sound, [1] [m/s]	viscosity, [1] [mPa·s]
288.15 K, m1 = 0.0108	999.398 ± 0.32	1.3338 ± 0.0005	1468 ± 1.2	1.143 ± 0.015
288.15 K, m1 = 0.0204	999.663 ± 0.32	1.334 ± 0.0005	1469.3 ± 1.2	1.147 ± 0.015
288.15 K, m1 = 0.03	999.914 ± 0.32	1.3342 ± 0.0005	1470.7 ± 1.2	1.151 ± 0.015
288.15 K, m1 = 0.0401	1000.17 ± 0.32	1.3345 ± 0.0005	1472.1 ± 1.2	1.155 ± 0.015
288.15 K, m1 = 0.0509	1000.44 ± 0.32	1.3349 ± 0.0005	1473.6 ± 1.2	1.16 ± 0.015
288.15 K, m1 = 0.0583	1000.62 ± 0.32	1.3351 ± 0.0005	1474.6 ± 1.2	1.163 ± 0.015
298.15 K, m1 = 0.0108	997.345 ± 0.39	1.3331 ± 0.0005	1498.4 ± 1.9	0.897 ± 0.017
298.15 K, m1 = 0.0204	997.608 ± 0.32	1.3333 ± 0.0005	1499.7 ± 1.2	0.9 ± 0.014
298.15 K, m1 = 0.03	997.858 ± 0.32	1.3335 ± 0.0005	1501 ± 1.2	0.903 ± 0.014
298.15 K, m1 = 0.0401	998.115 ± 0.32	1.3337 ± 0.0005	1502.4 ± 1.2	0.906 ± 0.014
298.15 K, m1 = 0.0509	998.382 ± 0.31	1.3341 ± 0.0005	1503.9 ± 1.1	0.91 ± 0.014
298.15 K, m1 = 0.0583	998.553 ± 0.31	1.3343 ± 0.0005	1504.9 ± 1.3	0.912 ± 0.021
308.15 K, m1 = 0.0108	994.326 ± 0.38	1.3319 ± 0.0005	1521.6 ± 1.9	0.732 ± 0.014
308.15 K, m1 = 0.0204	994.588 ± 0.32	1.3321 ± 0.0005	1522.9 ± 1.2	0.735 ± 0.013
308.15 K, m1 = 0.03	994.839 ± 0.32	1.3323 ± 0.0005	1524.2 ± 1.2	0.737 ± 0.013
308.15 K, m1 = 0.0401	995.097 ± 0.32	1.3326 ± 0.0005	1525.6 ± 1.2	0.74 ± 0.013
308.15 K, m1 = 0.0509	995.362 ± 0.32	1.333 ± 0.0005	1527 ± 1.1	0.743 ± 0.013
308.15 K, m1 = 0.0583	995.534 ± 0.31	1.3333 ± 0.0005	1528 ± 1.3	0.745 ± 0.015
318.15 K, m1 = 0.0108	990.514 ± 0.32	1.3304 ± 0.0005	1537.5 ± 1.1	0.604 ± 0.013
318.15 K, m1 = 0.0204	990.779 ± 0.32	1.3306 ± 0.0005	1538.8 ± 1.1	0.607 ± 0.013
318.15 K, m1 = 0.03	991.029 ± 0.32	1.3309 ± 0.0005	1540 ± 1.1	0.609 ± 0.013
318.15 K, m1 = 0.0401	991.289 ± 0.32	1.3312 ± 0.0005	1541.3 ± 1.1	0.611 ± 0.013
318.15 K, m1 = 0.0509	991.561 ± 0.32	1.3315 ± 0.0005	1542.8 ± 1.1	0.613 ± 0.013
318.15 K, m1 = 0.0583	991.728 ± 0.32	1.3318 ± 0.0005	1543.7 ± 1.1	0.615 ± 0.013

Reference: the NIST ThermoML archive (doi:10.1016/j.jct.2018.12.022)
